{"source": "patent US20250025440A1", "about": "“COMPOSITIONS AND METHODS FOR MANAGEMENT OF HUMAN PAPILLOMA VIRUS-ASSOCIATED CANCERS” (LOMA LINDA UNIVERSITY, priority 2021, published 2025)", "key": {"[1]": {"molecular_target": "T1, full-length HPV E6 binding to human Caspase 8 (Human papillomavirus type 16, UniProt P03126)", "T1 construct": "made in house; host or cells: E. coli", "T1 sequence (P03126 whole entry)": "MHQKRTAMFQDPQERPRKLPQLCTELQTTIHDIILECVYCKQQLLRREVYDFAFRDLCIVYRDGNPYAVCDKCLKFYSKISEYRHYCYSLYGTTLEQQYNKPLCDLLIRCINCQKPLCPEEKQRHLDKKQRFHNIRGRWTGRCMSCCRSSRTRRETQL", "settings": "SAR analogs", "protocol": "Three structurally diverse libraries (Prestwick library, Microsource Spectrum library and an in-house collection at Kansas University; see Table 1) were screened for the ability of compounds to inhibit the binding of full-length HPV E6 to human Caspase 8 using a previously optimized AlphaScreen™ protocol.\nThe compounds were diluted to a working concentration in DMSO and screened at a single-point final concentration of 10 μM with no replicates. Briefly, 75 nL of each compound was transferred and added to wells of the destination 384-well plate using the Echo dispenser to 4 μL of blocking solution. 4 μL of 800 nM GST-E6 and 4 μL of His6-Caspase 8 were added and pre-incubated at room temperature for 60 minutes. 8 μL of the donor and acceptor bead mixture (final concentration of 20 μg/ml) was then added. The plates were sealed and incubated for 4 hours at room temperature before the plates were read using the Envision™ Multi-Label plate reader (Perkin Elmer Inc.). […] A 10-point serial dilution of these compounds was done for dose-dependency reconfirmation. Dose response inhibition curves were constructed and IC50 calculated using GraphPad Prism using four parameter non-linear regression analysis.\nThe first counter-screen assay was based using the GST-His6 fusion peptide as the E6-binding partner instead of GST-E6-His6-Caspase 8. Hit candidate compounds from the primary screen were prepared using a 6-point serial dilution. Using an Echo dispenser, compounds were transferred to plates containing 4 μL of blocking buffer. 8 μL of 5 nM GST-His6 peptide substrate was then added. The mixture was pre-incubated at room temperature for 60 minutes. Glutathione donor and nickel chelate acceptor beads (final concentration 20 μg/mL) were added and incubated for another 60 minutes at room temperature. Dose-dependency of the compounds using GST-E6-His6-Caspase 8 was performed in parallel using the same protocol as in the primary screen. The signals were then read using the Envision™ plate reader.\nUsing the SciFinder and Zinc15 databases, several gambogic acid structural analogs were identified and selected. The 8 analogs were obtained as follow: gambogenic amide (Enzo Life Sciences), gambogenic acid (Selleckchem), morellic acid (Aobious), 30-hydroxy gambogic acid (Quality Phytochemicals, LLC), acetyl gambogic acid (Microsource), and gambogin, neogambogic acid and isomorellinol (MolPort Natural Products). Additional gambogic acid was purchased from Tocris. The interactions of the analogues with E6-caspase 8 was tested using AlphaScreen™ technology using the same protocol as with the primary screen, and were compared to the parent compound. The effect on cell viability was also similarly done in HPV^+ and HPV^− cell lines via the MTT assay (see below) and potency was determined using GraphPad IC50 curve fitting."}, "[2]": {"tested_on": "SCC47 and SCC19", "experiment": "Apoptosis analysis after irradiation (flow cytometry)", "format": "cell-based", "protocol": "Kinetics of G2-M arrest when SCC47 and SCC19 are irradiated with or without GA-OH. Cells were treated with radiation (4Gy) followed by GA-OH before cell cycle analysis was performed using […] flow cytometry assay after 24 hours. FIGS. 17A-17B are graphical representations of the kinetics of G2-M arrest when SCC47 and SCC19 are irradiated and followed by treatment with control or with GA-OH, as measured by flow cytometry assays after 24 hours. Cells are arrested to the same extent in the short term (first 12 hours) but over extended periods, SCC19 cells exit the G2-M stage quicker. In the HPV^+ but not HPV^− line, the addition of GA-OH to the radiation protocol delays the exit from the exit the G2-M stage at 24 hours as compared to radiation alone. Apoptosis analysis of SCC47 and SCC19 was performed after irradiation and followed by treatment with control or with GA-OH, as measured by flow cytometry assays after 24 hours. FIGS. 18A-18B are graphical representations of the apoptotic analysis of SCC47 and SCC19 after irradiation with or without GA-OH after 24 hours, as measured by flow cytometry assays. Radiation induces minimal apoptosis on its own."}, "[3]": {"tested_on": "SCC19 (HPV-) cells", "experiment": "Western blotting of p53 and apoptosis mediators", "format": "cell-based", "settings": "HPV- cell line, 0.5 μM and 1 μM, 24 hours", "protocol": "(§1) Based on the cell viability studies described above, as well as AlphaScreen™ data showing that that GA-OH prevents E6 from binding to both caspase 8 and the p53-recruiter, E6AP, activation of p53 and associated apoptotic effects could be contributing to the decrease in cell viability. Levels of p53 and its target gene product, p21, were evaluated using immunoblotting. […] FIG. 8A is a photographic image of blots analyzing Caspase 8 expression and activation of downstream targets. SCC19, SCC90 and SCC104 were seeded and treated with vehicle, 0.5 μM and 1 μM Of GA-OH for 24 hours. Activation of p53 was tested by blotting for p53 expression and activation. Caspase 8 activation and apoptosis was tested by blotting for Caspase 8 expression and activation of downstream targets. These observations were corroborated by an induction of the levels of the target of p53, p21. […] The basal levels of p53 in the HPV^+ cell lines are lower compared to the HPV^− cell line.\n(§2) The effect of GA-OH treatment on activation of another target of E6, caspase 8, and its downstream targets in the apoptosis cascade was evaluated. […] There is a noticeable increase in caspase 8 levels in the HPV^− cell line upon exposure to GA-OH. […] Quantification of relative expression of each of the targets above using B-actin as a loading control. FIGS. 9A-9E are graphical representations of the relative expression of cleaved PARP, p53, p21, cleaved caspase 3, and cleaved caspase 8, respectively in SCC19, SCC90 and SCC104 cell lines when treated with vehicle, or 0.5 μM, or 1 μM of GA-OH, each of the targets above using B-actin as a loading control is shown.\n(§3) Adherent cells were washed with ice cold PBS. Cell lysis buffer containing protease inhibitor cocktail was added and cells were scraped off into a tube on ice. The cells were incubated on ice for 10 minutes. Cell lysates were separated by SDS-PAGE and electrophoretically transferred to PVDF membranes. Following blocking, antibodies directed against caspase 8, p53, cleaved PARP, cleaved caspase 3, p21, and β-actin (Cell signaling) were applied at 1:5000 dilution. Anti-mouse and anti-rabbit secondary antibodies were then employed (LI-COR Biosciences, Lincoln, NE, USA). Signals were measured using the Odyssey Infrared Imaging system (LI-COR Biosciences) and quantified using Image J."}, "[4]": {"tested_on": "SCC90 and SCC104 (HPV+) cells", "experiment": "Western blotting of p53 and apoptosis mediators", "format": "cell-based", "settings": "0.5 μM and 1 μM, 24 hours", "protocol": "as §1, §2, §3"}}}
{"substance": "30-hydroxygambogic acid [GA-OH]", "values": [{"measurement": "inhibition of E6-caspase 8 binding relative to GA", "setting": "[1]", "result": "more effectively inhibited E6 binding to caspase 8 than any of the other analogs or the parent compound"}, {"measurement": "apoptosis, agent alone", "setting": "[2]; 24 hours", "result": "appreciable apoptosis"}, {"measurement": "apoptosis, combination with radiation", "setting": "[2]; SCC47 compared to SCC19, 24 hours", "result": "greater apoptosis and at a greater rate"}, {"measurement": "caspase 8 cleavage", "setting": "[3]", "result": "no visible cleavage of caspase 8"}, {"measurement": "PARP cleavage", "setting": "[4]", "result": "cleavage is modest"}, {"measurement": "caspase 3 cleavage", "setting": "[4]", "result": "cleaved dose-dependently"}, {"measurement": "caspase 8 cleavage", "setting": "[4]", "result": "cleavage of caspase 8 in a dose-dependent manner"}, {"measurement": "p53 level", "setting": "[4]", "result": "increase of p53"}, {"measurement": "p21 level", "setting": "[4]; vs vehicle", "result": "robust induction of p21 levels"}]}
